Activity change, negative = viability loss and AC50 data for 14 molecules are collected here from PubChem BioAssay AID540315 (Broad Institute, 2011).

Calls of active or inactive are those of the source.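 The calls were made as follows: active = compounds lowering cell viability whose fitted half-effect dose is at most ten times the top tested dose; inconclusive = flat curve with moderate viability loss, or a poor fit; inactive = the rest.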

Test system in the first test: not listed separately
Put plainly: viability loss in DRD cells, dose response, cell-based, secondary screen, plate reader, dry powder, set 4 (AID 540315). The note with it: DRD HRASV12-transformed BJ fibroblasts viability, Alamar Blue, 48 h; at 48 µM (top of the series).
On to `Cc1onc(C(=O)N2CCN(Cc3ccccc3)CC2)c1[N+](=O)[O-]`, for which the activity change, negative = viability loss is -2.4% (inactive).

A further test has as its system DRD HRASV12-transformed BJ fibroblasts viability, Alamar Blue, 48 h. Described as above.
Conditions: not given
As usually defined, the AC50 is the midpoint of the concentration-response curve, whichever way the signal moves. With `Cc1onc(C(=O)N2CCN(C(c3ccc(Cl)cc3)c3ccc(Cl)cc3)CC2)c1[N+](=O)[O-]`, the AC50 is 0.287 µM.
In the case of `COc1ccc(C(c2ccc(OC)cc2)N2CCN(C(=O)c3noc(C)c3[N+](=O)[O-])CC2)cc1`, the AC50 is 4.37 µM.
With `COc1ccc(C(c2ccc(OC)cc2)N2CCN(C(=O)c3ccc([N+](=O)[O-])o3)CC2)cc1`, the AC50 was 5.84 µM.
Consider `CCOc1ccccc1-n1c(C(C)N2CCN(C(=O)COc3ccc(Cl)cc3)CC2)nc2ccccc2c1=O` (centres undefined), for which the AC50 was 2.16 µM.
Turning to `COC(=O)c1ccc([C@@H]2c3[nH]c4ccccc4c3C[C@@H](C(=O)OC)N2C(=O)CCl)cc1`, the AC50 is 0.604 µM.
Regarding `Cc1onc(C(=O)N2CCN(C(c3ccc(F)cc3)c3ccc(F)cc3)CC2)c1[N+](=O)[O-]`, the AC50 was 0.784 µM.
As to `Cc1onc(CC(=O)N2CCN(C(c3ccc(F)cc3)c3ccc(F)cc3)CC2)c1[N+](=O)[O-]`, the AC50 was 30.9 µM.
As to `Cc1onc(C(=O)N2CCN(C(c3ccccc3)c3ccccc3)CC2)c1[N+](=O)[O-]`, the AC50 was 2.64 µM.
Still for that read-out and setting: under `Cc1onc(C(=O)NCCNC(c2ccccc2)c2ccccc2)c1[N+](=O)[O-]` stands 43.8 µM.
With `Cc1onc(C(=O)N2CCN(C(c3ccccc3)c3ccc(Cl)cc3)CC2)c1[N+](=O)[O-]` (centres undefined), the AC50 is 0.585 µM.
As to `O=C(NCCNC(c1ccccc1)c1ccccc1)c1ccc([N+](=O)[O-])o1`, the AC50 is 5.59 µM.
Consider `Cc1onc(C(=O)N2CCCN(C(c3ccccc3)c3ccccc3)CC2)c1[N+](=O)[O-]`, for which the AC50 is 3.87 µM.
The same measure, in the same setting: under `O=C(c1ccc([N+](=O)[O-])o1)N1CCN(C(c2ccc(F)cc2)c2ccc(F)cc2)CC1` stands 10.7 µM.
